Experimental data from US11820835B2, “Cyclic tetrapeptide analogs” (University of Kansas, priority 2018, dated 2023).
Where two headings read alike, the source gives them in different places. Non-standard residues stand in square brackets, D forms with d. Residues, ends and D or L forms follow the SMILES beside them. 2Pal = N[C@@H](Cc1ccccn1)C(=O)O; 3Pal = N[C@@H](Cc1cccnc1)C(=O)O; 4Pal = N[C@@H](Cc1ccncc1)C(=O)O

Assays:
[1] = tested on: kappa opioid receptor (KOR); settings: cited from earlier work
[2] = molecular target: KOR (kappa opioid receptor) (Homo sapiens, UniProt P41145); test: Radioligand binding assay, KOR affinity; settings: for Selectivity (KOR/MOR): ratio of KOR and MOR Ki; for Ki: read-out: KOR Ki (nM ± SEM)
Experimental: (§1) The analogs were evaluated in vivo in an analgesic assay (mouse 55° C. warm-water tail withdrawal assay) for opioid agonist and antagonist activity. Representative analogs were evaluated in a conditioned place preference (CPP) assay for their ability to prevent stress-induced relapse to cocaine-seeking behavior. Further, representative analogs were evaluated for opioid receptor affinity in radioligand binding assays (Table 2).

[3] = molecular target: T1, kappa opioid receptor (KOR) (Mus musculus, UniProt P33534); settings: p.o.; Eans et al., 2013; cited from earlier work
T1 construct: from tissue; host or cells: living mouse (in vivo; CNS)

mice [4] = settings: p.o., CPP assay; Eans et al., 2013; cited from earlier work
mice [5] = test: Conditioned place preference (CPP) assay, stress-induced relapse to cocaine-seeking behavior; type: in vivo, mouse; settings: p.o.
Experimental: as §1

[6] = molecular target: T1, kappa opioid receptor (KOR); test: Mouse 55° C. warm-water tail withdrawal assay, opioid antagonist activity (antagonism of KOR agonist U50,488); type: in vivo; settings: for duration of KOR antagonism of centrally administered U50,488: 30 mg/kg p.o.; for selectivity of opioid antagonism (KOR vs. MOR and DOR agonists): U50,488, morphine, SNC-80; for antagonism of centrally (i.c.v.) administered KOR agonist U50,488: peptide given orally
Experimental: as §1

[7] = Locomotion following oral administration; type: in vivo; settings: 10 or 30 mg/kg p.o.
From the text: (§2) FIGS. 6A-B provides the results of studies on locomotion and respiration following oral administration of JVA-3620.
(§3) FIG. 7A-B provides the results of studies on locomotion and respiration following oral administration of JVA-3628.

MOR (mu opioid receptor) = MOR (mu opioid receptor) (Homo sapiens, UniProt P35372); test: Radioligand binding assay, MOR affinity; settings: read-out: MOR Ki (nM ± SEM)
Experimental: as §1

[8] = Respiration following oral administration; type: in vivo; settings: 10 or 30 mg/kg p.o.
From the text: as §2, §3

mice [9] = test: Mouse 55° C. warm-water tail withdrawal assay, antinociception (opioid agonist activity); type: in vivo
Experimental: as §1

MOR (mu opioid receptor), sequence (P35372 whole entry): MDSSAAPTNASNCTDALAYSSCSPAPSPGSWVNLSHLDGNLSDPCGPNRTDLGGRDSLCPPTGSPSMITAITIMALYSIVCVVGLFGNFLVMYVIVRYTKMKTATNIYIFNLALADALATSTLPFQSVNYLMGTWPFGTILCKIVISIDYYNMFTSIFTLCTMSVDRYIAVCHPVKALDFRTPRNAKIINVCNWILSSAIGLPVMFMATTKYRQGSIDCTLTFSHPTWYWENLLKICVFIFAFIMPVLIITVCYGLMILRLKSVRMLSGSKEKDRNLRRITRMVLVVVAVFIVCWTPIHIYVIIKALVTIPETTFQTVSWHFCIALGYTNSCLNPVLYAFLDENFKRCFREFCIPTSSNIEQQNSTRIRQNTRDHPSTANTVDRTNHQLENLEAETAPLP
KOR (kappa opioid receptor), sequence (P41145 whole entry): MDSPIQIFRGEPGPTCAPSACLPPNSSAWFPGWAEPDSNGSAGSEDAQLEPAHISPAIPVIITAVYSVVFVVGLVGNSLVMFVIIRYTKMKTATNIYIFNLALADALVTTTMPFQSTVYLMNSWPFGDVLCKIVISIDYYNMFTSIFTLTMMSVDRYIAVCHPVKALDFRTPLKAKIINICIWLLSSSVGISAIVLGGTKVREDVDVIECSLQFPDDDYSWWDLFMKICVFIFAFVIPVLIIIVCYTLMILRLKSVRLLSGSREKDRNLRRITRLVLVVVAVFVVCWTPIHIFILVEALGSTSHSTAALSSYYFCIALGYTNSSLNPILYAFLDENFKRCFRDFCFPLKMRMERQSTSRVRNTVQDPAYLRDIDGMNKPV
T1 sequence (P33534 whole entry): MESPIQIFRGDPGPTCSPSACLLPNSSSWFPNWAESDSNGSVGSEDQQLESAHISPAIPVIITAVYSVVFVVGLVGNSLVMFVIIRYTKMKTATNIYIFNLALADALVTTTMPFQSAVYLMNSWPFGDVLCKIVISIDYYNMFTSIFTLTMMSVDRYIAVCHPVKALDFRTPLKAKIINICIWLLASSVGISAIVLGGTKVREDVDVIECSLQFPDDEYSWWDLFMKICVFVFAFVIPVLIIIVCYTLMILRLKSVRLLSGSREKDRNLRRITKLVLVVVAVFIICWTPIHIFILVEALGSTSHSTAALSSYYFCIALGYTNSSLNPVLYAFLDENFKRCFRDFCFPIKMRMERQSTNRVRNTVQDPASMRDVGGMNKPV

CC(C)[C@@H](CN1CC[C@@](C)(c2cccc(O)c2)[C@@H](C)C1)NC(=O)[C@H]1Cc2ccc(O)cc2CN1 [JDTic]
duration of activity after a single dose ([1]; in vivo): weeks in some species

O=C1N[C@H](Cc2c[nH]c3ccccc23)C(=O)N[C@@H](Cc2ccccc2)C(=O)N2CCC[C@@H]2C(=O)N[C@H]1Cc1ccccc1 [JVA-2802, cyclo[Phe′-D-Pro-Phe^3-D-Trp^4]] (cyclo(F[dP]F[dW]))
duration of action ([1]; Ross et al., 2012, Eans et al., 2013): < 18 h
Selectivity (KOR/MOR) [2]: 1/12
Ki [2]: 21.8 nM
oral dose required to significantly antagonize centrally administered U50,488 [3]: 30 mg/kg
oral dose preventing stress-induced relapse of cocaine-seeking behavior (mice [4]): 60 mg/kg

O=C1N[C@H](Cc2ccccc2)C(=O)N[C@@H](Cc2ccccc2)C(=O)N2CCC[C@@H]2C(=O)N[C@H]1Cc1ccccc1 [JVA-3620] (cyclo(F[dP]F[dF]))
oral dose preventing stress-induced relapse of cocaine-seeking behavior (mice [5]): 30 mg/kg
Selectivity (KOR/MOR) [2]: 1/38
Ki [2]: 28.9 ± 4.9 nM
duration of KOR antagonism of centrally administered U50,488 [6]: 6 to 12 h
selectivity of opioid antagonism (KOR vs. MOR and DOR agonists) [6]: selectively antagonized the KOR agonist U50,488, but not the mu opioid receptor agonist morphine or the delta opioid receptor antagonist SNC-80
KOR antagonism ([6]; i.c.v. administration): exhibited KOR antagonism
KOR antagonism ([6]; oral (p.o.) administration): exhibited KOR antagonism
oral dose required to significantly antagonize centrally administered U50,488 ([6]; p.o.): 10 mg/kg
antagonism of centrally (i.c.v.) administered KOR agonist U50,488 [6]: antagonized centrally (i.c.v.) administered KOR agonist
locomotion [7]: does not produce hyperlocomotion like morphine, but instead can significantly decrease locomotion during the first hour
Ki (MOR (mu opioid receptor)): 1100 ± 80 nM
respiration [8]: decreases respiration during the first hour

O=C1N[C@H](Cc2c[nH]c3ccccc23)C(=O)N[C@@H](Cc2c[nH]cn2)C(=O)N2CCC[C@@H]2C(=O)N[C@H]1Cc1ccccc1 [JVA-3622] (cyclo(H[dP]F[dW]))
Ki [2]: 667 ± 470 nM
Ki (MOR (mu opioid receptor)): 2500 ± 510 nM

O=C1N[C@H](Cc2c[nH]c3ccccc23)C(=O)N[C@@H](Cc2ccccc2)C(=O)N2CCC[C@@H]2C(=O)N[C@H]1Cc1c[nH]cn1 [JVA-3623] (cyclo(F[dP]H[dW]))
Ki [2]: 67.7 ± 9.2 nM
Ki (MOR (mu opioid receptor)): 366 ± 98 nM

O=C1N[C@H](Cc2c[nH]c3ccccc23)C(=O)N[C@@H](Cc2ccccc2)C(=O)N2CCC[C@@H]2C(=O)N[C@H]1Cc1cccnc1 [JVA-3624] (cyclo(F[dP][3Pal][dW]))
Selectivity (KOR/MOR) [2]: 1/23
Ki [2]: 8.34 ± 1.48 nM
KOR antagonism ([6]; i.c.v. administration): not KOR antagonism
antinociception ED50 (mice [9]; i.c.v.): 1.13 nmol
antinociception (agonist activity) (mice [9]; i.c.v. administration): exhibits antinociception
Ki (MOR (mu opioid receptor)): 191 ± 39 nM

O=C1N[C@H](Cc2c[nH]c3ccccc23)C(=O)N[C@@H](Cc2ccccc2)C(=O)N2CCC[C@@H]2C(=O)N[C@H]1Cc1ccncc1 [JVA-3625] (cyclo(F[dP][4Pal][dW]))
Selectivity (KOR/MOR) [2]: 1/12
Ki [2]: 30.7 ± 6.8 nM
Ki (MOR (mu opioid receptor)): 371 ± 81 nM

O=C1N[C@H](Cc2c[nH]c3ccccc23)C(=O)N[C@@H](Cc2ccccc2)C(=O)N2CCC[C@@H]2C(=O)N[C@H]1Cc1ccccn1 [JVA-3626] (cyclo(F[dP][2Pal][dW]))
Selectivity (KOR/MOR) [2]: 1/20
Ki [2]: 82.3 ± 13.8 nM
Ki (MOR (mu opioid receptor)): 1610 ± 590 nM

O=C1N[C@H](Cc2c[nH]c3ccccc23)C(=O)N[C@@H](Cc2ccccn2)C(=O)N2CCC[C@@H]2C(=O)N[C@H]1Cc1ccccc1 [JVA-3627] (cyclo([2Pal][dP]F[dW]))
Selectivity (KOR/MOR) [2]: 1/43
Ki [2]: 58.4 ± 9.3 nM
Ki (MOR (mu opioid receptor)): 2530 ± 460 nM

O=C1N[C@H](Cc2c[nH]c3ccccc23)C(=O)N[C@@H](Cc2cccnc2)C(=O)N2CCC[C@@H]2C(=O)N[C@H]1Cc1ccccc1 [JVA-3628] (cyclo([3Pal][dP]F[dW]))
oral dose preventing stress-induced relapse of cocaine-seeking behavior (mice [5]): 30 mg/kg
Selectivity (KOR/MOR) [2]: 1/24
Ki [2]: 41.8 ± 16.3 nM
duration of KOR antagonism of centrally administered U50,488 [6]: 12 to 24 h
selectivity of opioid antagonism (KOR vs. MOR and DOR agonists) [6]: opioid antagonism is selective for KOR
KOR antagonism ([6]; i.c.v. administration): selective KOR antagonism
KOR antagonism ([6]; oral (p.o.) administration): antagonizing both peripherally and administered KOR agonist
antagonism of centrally (i.c.v.) administered KOR agonist U50,488 [6]: exhibits kappa opioid receptor (KOR) antagonism of centrally administered KOR agonist activity
locomotion [7]: does not produce hyperlocomotion like morphine, but instead can significantly decrease locomotion during the first hour
Ki (MOR (mu opioid receptor)): 988 ± 146 nM
respiration [8]: decreases respiration during the first hour

O=C1N[C@H](Cc2c[nH]c3ccccc23)C(=O)N[C@@H](Cc2ccncc2)C(=O)N2CCC[C@@H]2C(=O)N[C@H]1Cc1ccccc1 [JVA-3629] (cyclo([4Pal][dP]F[dW]))
Selectivity (KOR/MOR) [2]: 1/86
Ki [2]: 32 ± 4.1 nM
Ki (MOR (mu opioid receptor)): 2740 ± 310 nM

[D-2′-Pal^4]CJ-15,208 [JVA-3671]
KOR antagonism ([6]; i.c.v. administration): exhibits KOR antagonist activity
antinociception (agonist activity) (mice [9]; i.c.v. administration): exhibits antinociception
opioid receptor mediating the antinociception (mice [9]; i.c.v. administration): mediated by delta opioid receptors (DOR)

[D-Bip^4]CJ-15,208 [JVA-3667]
selectivity of opioid antagonism (KOR vs. MOR and DOR agonists) [6]: selective for KOR
KOR antagonism ([6]; i.c.v. administration): weak KOR antagonist
KOR antagonism ([6]; oral (p.o.) administration): only KOR antagonism
antinociception (agonist activity) (mice [9]; i.c.v. administration): agonist

[D-His^4]CJ-15,208 [JVA-3670]
KOR antagonism ([6]; i.c.v. administration): not KOR antagonist
KOR antagonism ([6]; oral (p.o.) administration): only KOR antagonism
antinociception (agonist activity) (mice [9]; i.c.v. administration): agonist

[D-Tyr^4]CJ-15,208 [JVA-3669]
KOR antagonism ([6]; i.c.v. administration): not KOR antagonist
antinociception (agonist activity) (mice [9]; i.c.v. administration): agonist

[D-hPhe^4]CJ-15,208 [JVA-3668]
KOR antagonism ([6]; i.c.v. administration): not KOR antagonist
antinociception (agonist activity) (mice [9]; i.c.v. administration): agonist
